{"source": "patent US7880021B2", "about": "“Compounds and kits for the detection and the quantification of cell apoptosis” (Centre National de la Recherche Scientifique (CNRS), priority 2005, dated 2011)", "key": {"CEM T cells": {"test_system": "CEM T cells", "experiment": "Emission spectra in living and apoptotic cell suspensions, and Ca2+ dependence", "assay_type": "cell-based, human", "description": "FIG. 3: Emission spectra of the probe F2N12S in living (solid line) and apoptotic (dash line) CEM cells. Excitation wavelength was 400 nm. Final probe concentration was 0.1 μM.\nFIG. 4: Ca^2+ dependence of F2N12S emission spectra in apoptotic CEM cells. The excitation wavelength was 400 nm. The spectra were recorded at Ca^2+ concentrations of 0.2, 0.4, 0.8, 1.2 and 2 mM and normalized. Final probe concentration was 0.1 μM.\nHuman lymphoid CEM T cells were cultured in X-vivo 15 medium (Cambrex, France) at 37° C. in humidified 5% CO2 atmosphere. Cell viability was checked by trypan blue exclusion. Cells were seeded at 5×10^5 cells/ml in the presence or absence of actinomycin D (0.5 μg/ml) for 18 h. […]\nThe cells were washed twice by HBSS before each experiment to eliminate fetal bovine serum. […] For fluorescence measurements with the probe of the invention F2N12S (fluorometry, flow cytometry and confocal microscopy), cells were resuspended in HBSS with 0.1 μM F2N12S. […] The staining pattern of the cells was checked with a Confocal Imaging System MRC-1024 (BioRad) to ascertain that fluorescence originates from the plasma membrane.\nFluorescence spectra were recorded on a FLUOROMAX-3® (spectrofluorometer) (JobinYvon Horiba). The excitation wavelength for fluorescence emission spectra of F2N12S probes was 400 nm. […]"}, "HeLa cells": {"test_system": "HeLa cells", "experiment": "Flow cytometry F2N12S intensity ratio in HeLa cells", "assay_type": "cell-based", "conditions": "data not shown", "description": "The probe of the invention F2N12S has been combined with PI and the fluorescence intensities of PI have been represented as a function of the T*/N* ratio of F2N12S (FIG. 6c). In this case, the populations of apoptotic and dead cells are clearly discriminated by using the differences in the PI intensities. […] This conclusion was further strengthened when the populations discriminated by the F2N12S/PI couple were colored according to their response with the annexin V-FITC/PI couple (FIG. 6d)."}, "L 929 cells": {"test_system": "L 929 cells", "experiment": "Confocal fluorescence imaging of L 929 cells stained with 3-HF probes", "assay_type": "cell-based", "description": "FIG. 1: (a) Formula and location of 3-HF probes of the prior art F and F2N8 and of the probe of the invention F2N12S in phospholipid bilayers (a). Confocal fluorescence images of L 929 cells stained with probes F (b), F2N8 (c) and F2N12S (d). All images were obtained by collecting fluorescence in the 585-700 nm wavelength range 10 min after probe addition. Scale bar, 10 μm (b).\nThe cells were washed twice by HBSS before each experiment to eliminate fetal bovine serum. In sorting experiments, cells were resuspended in the binding buffer and labeled with the annexin V-FITC kit. For fluorescence measurements with the probe of the invention F2N12S (fluorometry, flow cytometry and confocal microscopy), cells were resuspended in HBSS with 0.1 μM F2N12S. Then, the cell suspension was placed in a shaker bath for 10 min in the incubator. The staining pattern of the cells was checked with a Confocal Imaging System MRC-1024 (BioRad) to ascertain that fluorescence originates from the plasma membrane.\nFor collecting cell images, a Laser Scanning Confocal Imaging System MRC-1024 (Bio-Rad) was used. […] Collected images were analyzed by the Amira 3.0 software.\nConfocal laser microscopy have been performed on adherent L 929 cells stained with these first generation molecules (FIG. 1.b, c). The obtained fluorescence images reveal a rapid penetration of these dyes inside the cells. […]"}, "[1]": {"experiment": "Fluorescence properties of the probes (absorption maximum, band resolution)", "assay_type": "physicochemical", "description": "The probe TCN12S is an analog of F2N12S and was synthesized to improve the fluorescence properties. Indeed, substitution of the 2-phenyl group with 2-thienyl shifts the absorption maximum from 420 nm to 445 nm, making this probe suitable for excitation with a He/Cd laser (442 nm). Moreover, the resolution between the two emission bands increases from 90 nm (F2N12S) to 120 nm (TCN12S), favoring two-color ratiometric detection."}}, "data": [{"substance": "1-dodecanaminium, N-[[2-[4-Diethylaminophenyl]-3-hydroxychromon-6-yl]-methyl]-N-methyl-N-(3-sulfopropyl)-, inner salt [F2N12S]", "values": [{"measurement": "relative intensity of the short-wavelength band, apoptotic versus living cells", "setting": "CEM T cells; actinomycin D-induced apoptosis, cells sorted with FITC-annexin, excitation 400 nm, probe 0.1 μM", "result": "~2", "unit": "fold"}, {"measurement": "dependence of the response on Ca2+ concentration", "setting": "CEM T cells; apoptotic cells, Ca2+ 0-2 mM", "result": "insensitive"}, {"measurement": "F2N12S intensity ratio values compared with T lymphoblastoid cells", "setting": "HeLa cells", "result": "very similar"}, {"measurement": "time the probes stay in the plasma membrane (whole observation time)", "setting": "L 929 cells; L 929 cells in HBSS buffer, limited by lifetime of the cells", "result": "approx. 1 hour"}, {"measurement": "location of probe fluorescence in stained cells", "setting": "L 929 cells; adherent L 929 cells, images 10 min after probe addition, 585-700 nm", "result": "emission exclusively from the plasma membranes"}, {"measurement": "absorption maximum", "setting": "[1]", "result": 420, "unit": "nm"}, {"measurement": "resolution between the two emission bands", "setting": "[1]", "result": 90, "unit": "nm"}]}]}
